A word on the Ki: it is a measure of affinity in units of concentration, obtained from inhibition or displacement. One may read the IC50 as the point on the concentration scale where inhibition reaches its midpoint.

Structures can show the parent of a compound that is named as a salt. A value given as a limit tells only on which side of the number the result lay.

In test [1] the target is T1, Neuropeptide Y5 receptor (Rattus norvegicus, UniProt Q63634).
T1 construct: from tissue; host or cells: rat brain cortex membranes (male Wistar rats)
T1 sequence (Q63634 1-445): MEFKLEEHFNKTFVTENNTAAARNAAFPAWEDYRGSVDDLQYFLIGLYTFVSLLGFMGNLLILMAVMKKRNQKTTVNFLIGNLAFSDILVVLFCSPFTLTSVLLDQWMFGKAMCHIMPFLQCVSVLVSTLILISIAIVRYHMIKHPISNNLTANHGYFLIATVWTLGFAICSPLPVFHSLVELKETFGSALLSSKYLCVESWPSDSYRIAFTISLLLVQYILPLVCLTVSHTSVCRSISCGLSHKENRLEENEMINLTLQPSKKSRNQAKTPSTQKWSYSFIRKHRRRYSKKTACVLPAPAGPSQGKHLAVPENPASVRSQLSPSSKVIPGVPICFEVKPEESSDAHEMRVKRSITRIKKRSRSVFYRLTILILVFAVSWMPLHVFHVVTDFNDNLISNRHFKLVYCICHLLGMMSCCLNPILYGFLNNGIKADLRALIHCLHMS
Description: Neuropeptide Y5 receptor binding, Method (I), [125I]-PYY3-36 with BIBP 3226, rat cortex membranes. The following applies: [125I]-PYY(3-36), BIBP 3226 sat. On the procedure: Male Wistar rats are sacrificed by decapitation, their brains are rapidly removed and the cortex is dissected. Homogenization is performed in cold conditions in the buffer: 120 mM NaCl, 4.7 mM KCl, 2.2 mM CaCl2, 1.2 mM KH2PO4, 1.2 mM MgSO4, 25 mM NaHCO3, 5.5 mM glucose, pH 7.4, by means of a Ultra-Turrax homogenizer for 15 seconds at 13,500 rpm. The ratio between fresh tissue weight and buffer volume is of twenty times. The membrane is centrifuged for 10 min at 48,000 g. The supernatant is discarded and the pellet is washed, resuspended and recentrifuged three more times. […] Incubation volume: 500 μl. […] The filters are cold-washed three times with two milliliters of the same buffer used in homogenization. […] Non-specific binding is determined in the presence of 1 μM of pNPY (Neuropeptide Y of porcine origin). The assays are performed in triplicate.

Test [2] deals with T2, Neuropeptide Y2 receptor (Rattus norvegicus, UniProt Q9ERC0).
T2 construct: from tissue; host or cells: rat hippocampus membranes (male Wistar rats)
T2 sequence (Q9ERC0 1-381): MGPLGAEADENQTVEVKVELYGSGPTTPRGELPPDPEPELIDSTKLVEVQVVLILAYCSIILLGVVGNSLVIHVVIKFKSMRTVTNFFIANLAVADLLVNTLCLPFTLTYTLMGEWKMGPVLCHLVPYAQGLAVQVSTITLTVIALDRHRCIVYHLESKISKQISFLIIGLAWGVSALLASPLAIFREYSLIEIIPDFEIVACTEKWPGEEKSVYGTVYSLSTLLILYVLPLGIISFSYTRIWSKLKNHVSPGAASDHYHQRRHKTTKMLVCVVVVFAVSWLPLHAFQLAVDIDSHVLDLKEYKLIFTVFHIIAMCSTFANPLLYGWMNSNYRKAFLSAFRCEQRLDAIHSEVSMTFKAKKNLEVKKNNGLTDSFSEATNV
Description: Binding to Neuropeptide Y2, Method (III), [125I]-PYY3-36, rat hypoccampus membranes. The following applies: [125I]-PYY(3-36). On the procedure:
Binding to Neuropeptide Y2
Male Wistar rats are sacrificed by decapitation, their brains are rapidly removed and the hypoccampus is dissected. Homogenization is performed in cold conditions in the buffer: 120 mM NaCl, 4.7 mM KCl, 2.2 mM CaCl2, 1.2 mM KH2PO4, 1.2 mM MgSO4, 25 mM NaHCO3, 5.5 mM glucose, pH 7.4, by means of a Ultra-Turrax homogenizer for 15 seconds at 13,500 rpm. The ratio between fresh tissue weight and buffer volume is of ten times. The membrane is centrifuged for 10 min at 48,000 g. The supernatant is discarded and the pellet is washed, resuspended and recentrifuged two more times. The final membrane resuspension is performed in the buffer: 120 mM NaCl, 4.7 mM KCl, 2.2 mM CaCl2, 1.2 mM KH2PO4, 1.2 mM MgSO4, 25 mM NaHCO3, 5.5 mM glucose, 0.1% BSA, 0.05% bacitracin, pH 7.4, at a 90 ml/g ratio of fresh issue. […] Incubation volume: 500 μl. […] The filters are cold-washed three times with three milliliters of the same buffer used in homogenization. […] Non-specific binding is determined in the presence of 1 μM of pNPY (Neuropeptide Y of porcine origin). The assays are performed in triplicate.

Test [3] addresses T3, rat Y5 receptor (Rattus norvegicus, UniProt Q63634).
T3 construct: expressed in transfected cells; host or cells: C6 cells
T3 sequence (Q63634 1-445): T1 sequence (Q63634 1-445)
The experiment in a line: Neuropeptide Y5 receptor binding, Method (II), [125I]-PYY, C6 cells transfected with rat Y5 receptor. To be noted: Y5 rat recombinant receptor, cell C6. On the procedure: Neuropeptide Y5 Receptor Binding Studies:
The experimental protocol follows the method described by Y. Hu, B. T. Bloomquist et al. in Y. Hu, B. T. Bloomquist et al., The Journal of Biological Chemistry, 1996, 271, 26315-26319 with modifications. Cells C6 were transfected with the rat Y5 receptor. The cells were grown under standard culture conditions in 150 cm^2 dishes and they were harvested using a rubber scraper and 10 ml PBS. The cells from five dishes were collected and centrifuged 2.500 g for 5 min. The pellet was washed by resuspending in 3 ml buffer (Tris-HCl 10 mM, pH 7.4), homogenized using a Potter S homogenizer, 10 strokes at 600 rpm and centrifuged in cold conditions at 48.000 g for 20 min (4° C.). The resulting pellet was resuspended in cold 8 ml membrane buffer (Tris-HCl 25 mM, NaCl 120 mM, KCl 5 mM, KH2PO4 1, 2 mM, CaCl2 2, 5 mM, MgSO4 1, 2 mM, BSA 0.15 mg/ml, Bacitracine 0.5 mg/ml, pH 7, 4) and rehomogenized using the Potter S, 10 strokes at 600 rpm. The protein concentration of the used membrane in the incubation was approximately 40 μg/ml. The radioligand is [^125I]-PYY in a concentration of 100 pM. The incubation volume is 200 μl. […] Non-specific binding is determined in the presence of 1 μM of NPY. […]

`O=C(CN1CCC(N2C(=O)OCc3ccccc32)CC1)Nc1ccc2c(c1)CCCC2=O` [Example 6a, 2-[4-(2-oxo-4H-benzo[d][1,3]oxazin-1-ylipiperidin-1-yl]-N-(5-oxo-5,6,7,8-tetrahidro-naphthalene-2-yl)-acetamide hydrochloride]: the Ki in test [1] is 18.4 nM; in test [2], over 1000 nM.

As to `O=C(CN1CCC(N2C(=O)OCc3cc(F)ccc32)CC1)Nc1ccc2ncccc2c1` [Example 111a, 2-[4-(6-Fluoro-2-oxo-4H-benzo[d][1,3]oxazin-1-yl)-piperidin-1-yl]-N-quinolin-6-yl-acetamide], the IC50 in test [3] is 7.7 nM.

These data come from patent publication US20070059364A1, “Active substance combination comprising a compound with npy receptor affinity and a compound with 5-ht6 receptor affinity” (Laboratorios Del Dr. Esteve S.A., priority 2003, published 2007).
